Source: patent US8673942B2, “Fused ring compounds and use thereof” (Takeda Pharmaceutical Company Limited, priority 2008, dated 2014)

Legend:
[1] = biological target: T1, human liver GK (GST-hLGK1) (Homo sapiens, UniProt P35557); assay: Measurement of GK activation value; format: biochemical; conditions: GST-hLGK1 6 μg/mL, 5 mmol/L D-glucose, 50 μmol/L Mant-ATP, 60 min at 37° C.; concentration at midpoint between maximum activity value and control activity value
T1 construct: with a BamHI site added to immediately before the initiation codon; made in house; host or cells: Escherichia coli BL21 (Stratagene), plasmid pGEX6P-2/hLGK1
T1 sequence (P35557 1-464 isoform P35557-3): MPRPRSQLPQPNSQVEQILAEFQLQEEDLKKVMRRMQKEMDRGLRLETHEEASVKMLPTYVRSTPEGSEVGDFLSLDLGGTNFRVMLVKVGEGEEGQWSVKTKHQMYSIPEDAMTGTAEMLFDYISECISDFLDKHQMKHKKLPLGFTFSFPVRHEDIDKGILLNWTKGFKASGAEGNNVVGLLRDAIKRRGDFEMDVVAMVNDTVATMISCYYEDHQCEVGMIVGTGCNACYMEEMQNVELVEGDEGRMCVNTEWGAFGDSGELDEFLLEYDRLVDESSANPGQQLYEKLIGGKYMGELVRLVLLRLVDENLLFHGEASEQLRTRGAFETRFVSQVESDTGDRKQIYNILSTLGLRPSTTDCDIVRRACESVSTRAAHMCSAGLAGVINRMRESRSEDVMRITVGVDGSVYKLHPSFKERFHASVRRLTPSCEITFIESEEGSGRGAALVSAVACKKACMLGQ
Procedure: GK enzyme reactions were performed in 50 mmol/L HEPES pH 7.4, 200 mmol/L KCl, 5 mmol/L MgCl2, 2 mmol/L DTT, containing 50 μmol/L 2′-(or -3′)-O—(N-methylanthraniloyl)adenosine 5′-triphosphate (Mant-ATP) (Jena Bioscience GmbH), 5 mmol/L D-glucose, 5% DMSO and 6 μg/mL GST-hLGK1 obtained in Reference Example 2A in a total volume 50 μL. The reactions were performed in 384 well black plates (Nalge Nunc International K.K.). Prior to the reaction, the enzyme and test compound were incubated for 10 min at 37° C., and 25 mM D-glucose solution (10 μL) was added to start the reaction.
After the incubation for 60 min at 37° C., the reaction was quenched by adding 25 μL of a quenching solution (containing 200 mM HEPES (pH 7.4), 20 mM MgCl2, 200 mM EDTA, 0.03% Triton-X 100, 0.3% Coating 3 reagent (Caliper Life Sciences, Inc.)).
Mant-ATP (substrate, 2′- (or -3′)-O—(N-methylanthraniloyl) adenosine 5′-triphosphate) and Mant-ADP (reaction resultant product) were separated from each well after the reaction by a microchip type capillary electrophoresis apparatus 250 HTS (Caliper Life Sciences, Inc.). The reaction rate [(reaction resultant product peak height)/(reaction resultant product peak height+substrate peak height)×100(%)] was calculated from the ratio of the substrate peak height and reaction resultant product peak height obtained by fluorescence detection (excitation wavelength 355 nm, measurement wavelength 460 nm) and used as the index of GK activity.
As a control group, the reaction rate was calculated in the same manner as above without the test compounds.
The percentage obtained by dividing the reaction rate of the well added with each concentration of the test compound (test compound addition group) by the reaction rate of the control group was taken as the GK activity value, and the concentration of the test compound at the midpoint between the maximum activity value of the test compound addition group and the control group activity value is shown as EC50 value.

Compound	EC50 [1] [nM]	melting point [°C]
CCOc1cc(Oc2ccc(S(C)(=O)=O)nc2)cc2cc(C3=NCC(CC(=O)NC)S3)[nH]c12 (single isomer, unassigned) [Example 98, 2-[2-(7-Ethoxy-5-{[6-(methylsulfonyl)pyridin-3-yl]oxy}-1H-indol-2-yl)-4,5-dihydro-1,3-thiazol-5-yl]-N-methylacetamide]	20	
CC(C)Oc1cc(Oc2ccc(S(C)(=O)=O)cn2)cc2cc(C3=NCC(CC(C)(C)O)S3)[nH]c12 (single isomer, unassigned) [Example 65, 2-Methyl-1-{2-[7-(1-methylethoxy)-5-{[5-(methylsulfonyl)pyridin-2-yl]oxy}-1H-indol-2-yl]-4,5-dihydro-1,3-thiazol-5-yl}propan-2-ol]	59	
COc1cc(Oc2ccc(S(C)(=O)=O)nc2)cc2cc(C3=NCC(CC(=O)NCC(C)(C)O)S3)[nH]c12 (single isomer, unassigned) [Example 74]	28	173 to 174
COc1cc(Oc2ccc(S(C)(=O)=O)nc2)cc2cc(C3=NCC(CC(=O)N(C)C)S3)[nH]c12 (centres unmarked) [Example 79, 2-[2-(7-Methoxy-5-{[6-(methylsulfonyl)pyridin-3-yl]oxy}-1H-indol-2-yl)-4,5-dihydro-1,3-thiazol-5-yl]-N,N-dimethylacetamide]	35	206 to 207
COc1cc(Oc2ccc(S(C)(=O)=O)nc2)cc2cc(C3=NCC(CC(=O)N4CCOCC4)S3)[nH]c12 (centres unmarked) [Example 82, 7-Methoxy-5-{[6-(methylsulfonyl)pyridin-3-yl]oxy}-2-{5-[2-(morpholin-4-yl)-2-oxoethyl]-4,5-dihydro-1,3-thiazol-2-yl}-1H-indole]	42	148 to 149
CNC(=O)CC1CN=C(c2cc3cc(Oc4ccc(S(C)(=O)=O)nc4)cc(OC)c3[nH]2)S1 (single isomer, unassigned) [Example 31, 2-[2-(7-Methoxy-5-{[6-(methylsulfonyl)pyridin-3-yl]oxy}-1H-indol-2-yl)-4,5-dihydro-1,3-thiazol-5-yl]-N-methylacetamide]	28	196 to 197
CS(=O)(=O)c1ccc(Oc2cc(OCc3ccccc3)c3[nH]c(-c4ncc(CO)s4)cc3c2)cc1 [Example 23, (2-{7-(Benzyloxy)-5-[4-(methylsulfonyl)phenoxy]-1H-indol-2-yl}-1,3-thiazol-5-yl)methanol]		125 to 126
COCc1ccc(Oc2cc(OC(C)C)c3[nH]c(C4=NCC(CC(=O)NC5CC5)S4)cc3c2)cn1 (centres unmarked) [Example 72, N-Cyclopropyl-2-{2-[5-{[6-(methoxymethyl)pyridin-3-yl]oxy}-7-(1-methylethoxy)-1H-indol-2-yl]-4,5-dihydro-1,3-thiazol-5-yl}acetamide]		100 to 101
CS(=O)(=O)c1ccc(Oc2cc(OCc3ccccc3)c3[nH]c(-c4nnc(CO)s4)cc3c2)cc1 [Example 21, (5-{7-(Benzyloxy)-5-[4-(methylsulfonyl)phenoxy]-1H-indol-2-yl}-1,3,4-thiadiazol-2-yl)methanol]		159 to 160
CC(C)Oc1cc(Oc2ccc(S(C)(=O)=O)cn2)cc2cc(C3=NCC(CC(C)(C)O)S3)[nH]c12 (centres unmarked) [Example 63, 2-Methyl-1-{2-[7-(1-methylethoxy)-5-{[5-(methylsulfonyl)pyridin-2-yl]oxy}-1H-indol-2-yl]-4,5-dihydro-1,3-thiazol-5-yl}propan-2-ol]		151 to 153
CNC(=O)CC1CN=C(c2cc3cc(Oc4ccc(S(C)(=O)=O)nc4)cc(OC(COC)COC)c3[nH]2)S1 (centres unmarked) [Example 36, 2-[2-(7-[2-Methoxy-1-(methoxymethyl)ethoxy]-5-{[6-(methylsulfonyl)pyridin-3-yl]oxy}-1H-indol-2-yl)-4,5-dihydro-1,3-thiazol-5-yl]-N-methylacetamide]		149 to 151

Further lines, results first:

EC50 [1] [nM]	melting point [°C]	Compound
42	175 to 176	CS(=O)(=O)c1ccc(Oc2cc(OCc3cccc(Cl)n3)c3[nH]c(C4=NCC(CC(=O)O)S4)cc3c2)cc1 (centres unmarked) [Example 7, (2-{7-[(6-Chloropyridin-2-yl)methoxy]-5-[4-(methylsulfonyl)phenoxy]-1H-indol-2-yl}-4,5-dihydro-1,3-thiazol-5-yl)acetic acid]
15		COCC(C)Oc1cc(Oc2ccc(S(C)(=O)=O)cc2)cc2cc(C3=NCC(CCO)S3)[nH]c12 (single isomer, unassigned) [Example 58, 2-(2-{7-(2-Methoxy-1-methylethoxy)-5-[4-(methylsulfonyl)phenoxy]-1H-indol-2-yl}-4,5-dihydro-1,3-thiazol-5-yl)ethanol]
48	137 to 142	CC(CO)Oc1cc(Oc2ccc(S(C)(=O)=O)cc2)cc2cc(C3=NCC(CC(N)=O)S3)[nH]c12 (centres unmarked) [Example 17, 2-(2-{7-(2-Hydroxy-1-methylethoxy)-5-[4-(methylsulfonyl)phenoxy]-1H-indol-2-yl}-4,5-dihydro-1,3-thiazol-5-yl)acetamide]
17		COCC(C)Oc1cc(Oc2ccc(S(C)(=O)=O)cc2)cc2cc(C3=NCC(CCO)S3)[nH]c12 (single isomer, unassigned) [Example 57, 2-(2-{7-(2-Methoxy-1-methylethoxy)-5-[4-(methylsulfonyl)phenoxy]-1H-indol-2-yl}-4,5-dihydro-1,3-thiazol-5-yl)ethanol]
37	185 to 186	COc1cc(Oc2ccc(S(C)(=O)=O)nc2)cc2cc(C3=NCC(CC(=O)NC[C@H](C)O)S3)[nH]c12 (stereo partly drawn) [Example 80, N-[(2S)-2-Hydroxypropyl]-2-[2-(7-methoxy-5-{[6-(methylsulfonyl)pyridin-3-yl]oxy}-1H-indol-2-yl)-4,5-dihydro-1,3-thiazol-5-yl]acetamide]
	107 to 109	CNC(=O)CC1CN=C(c2cc3cc(Oc4ccc(S(C)(=O)=O)nc4)cc(OC(C)COC)c3[nH]2)S1 (centres unmarked) [Example 87, 2-{2-[7-(2-Methoxy-1-methylethoxy)-5-{[6-(methylsulfonyl)pyridin-3-yl]oxy}-1H-indol-2-yl]-4,5-dihydro-1,3-thiazol-5-yl}-N-methylacetamide]
	172 to 173	COCC(COC)Oc1cc(Oc2ccc(S(C)(=O)=O)nc2)cc2cc(C3=NCC(CC(N)=O)S3)[nH]c12 (centres unmarked) [Example 35, 2-[2-(7-[2-Methoxy-1-(methoxymethyl)ethoxy]-5-{[6-(methylsulfonyl)pyridin-3-yl]oxy}-1H-indol-2-yl)-4,5-dihydro-1,3-thiazol-5-yl]acetamide]
	233 to 235	CCOc1cc(Oc2ccc(S(C)(=O)=O)nc2)cc2cc(C3=NCC(CC(=O)NC)S3)[nH]c12 (centres unmarked) [Example 97, 2-[2-(7-Ethoxy-5-{[6-(methylsulfonyl)pyridin-3-yl]oxy}-1H-indol-2-yl)-4,5-dihydro-1,3-thiazol-5-yl]-N-methylacetamide]
	134 to 135	CS(=O)(=O)c1ccc(Oc2cc(OCc3ccccc3)c3[nH]c(C4=NCC(CC(N)=O)S4)cc3c2)cc1 (centres unmarked) [Example 4, 2-(2-{7-(Benzyloxy)-5-[4-(methylsulfonyl)phenoxy]-1H-indol-2-yl}-4,5-dihydro-1,3-thiazol-5-yl)acetamide]
	169 to 170	COc1cc(Oc2ccc(S(C)(=O)=O)cc2)cc2cc(C3=NCC(CC(N)=O)S3)[nH]c12 (centres unmarked) [Example 104, 2-(2-{7-Methoxy-5-[4-(methylsulfonyl)phenoxy]-1H-indol-2-yl}-4,5-dihydro-1,3-thiazol-5-yl)acetamide]
	131 to 132	COCC(C)Oc1cc(Oc2ccc(S(C)(=O)=O)nc2)cc2cc(C3=NCC(CC(N)=O)S3)[nH]c12 (centres unmarked) [Example 86, 2-{2-[7-(2-Methoxy-1-methylethoxy)-5-{[6-(methylsulfonyl)pyridin-3-yl]oxy}-1H-indol-2-yl]-4,5-dihydro-1,3-thiazol-5-yl}acetamide]
